In patent US8258098B2, “Antitumoral treatments” (Pharma Mar, S.A., priority 2006, dated 2012):

Tests used:
Test in all cases: MTS cytotoxicity assay, 72 hours, single agents and combinations with Aplidine
Format in all cases: cell-based
[1] = test system: A549 cells; conditions: A549, 72 hours drug exposure, read-out: IC50 (Molar)
Experimental: (§1) Day before plating cells all cultures were fed with fresh, complete growth media. On the harvest (plating) day cells were counted by Trypan Blue exclusion staining method (basic cell culture). Cells were harvested and seeded in 96 well microtiter plates at 10,000 cells per well in 190 μL of media and incubated for 24 hours to allow the cells to attach before drug addition. Cells were treated with the drugs and the cytotoxic effect was measured by the MTS Assay (Tetrazolium), which is a colorimetric method for determining the number of viable cells. After the 72 hours of incubation with drug, 25 μL of MTS+PMS solution was added to each microtiter well and incubated for 4 hours at 37° C. Plates were then removed from incubator and placed on plate shaker for 5 minutes (covered with aluminium foil for protection from light). Optical densities were read at 490 nm on spectrophotometer plate reader.
(§2) The microtiter plates were incubated for 72 hrs, at 5% CO2 and 37° C. The cytotoxic effect was measured by MTS Assay. Optical densities read at 490 nm. Normalized data was plotted and interpreted as described. Data was analysed as: • 1. Prism (Graphpad) software program was used to normalized the data to control values (100%=cell growth in the absence of agent (drug); 0%=blank control). • 2. Data normalized were plotted as scatter plots.
(§3) Conversely, antagonism was concluded when inhibition was lower than both maxima. […] Statistical significance was assessed by performing a student's t-test on the inhibition at each dose ratio versus the inhibition at the maximum for each drug.
(§4) As a visual aid, response values were plotted on a scatter plot with dose ratios given on the x-axis and % response values on the y-axis. […] In cases where response values at the two endpoints were approximately equivalent, points lying above or below this predicted line of additivity could be interpreted as representing antagonistic or synergistic drug interaction, respectively.

[2] = test system: HL60 cells; conditions: HL60, 72 hours drug exposure, read-out: IC50 (Molar)
Experimental: as §1, §2, §3, §4

[3] = test system: HT29 cells; conditions: HT29, 72 hours drug exposure, read-out: IC50 (Molar)
Experimental: as §1, §2, §3, §4

[4] = test system: MOLT3 cells; conditions: MOLT3, 72 hours drug exposure, read-out: IC50 (Molar)
Experimental: as §1, §2, §3, §4

[5] = test system: MX1 cells; conditions: MX1, 72 hours drug exposure, read-out: IC50 (Molar)
Experimental: as §1, §2, §3, §4

[6] = test system: PC3 cells; conditions: PC3, 72 hours drug exposure, read-out: IC50 (Molar)
Experimental: as §1, §2, §3, §4

[7] = test system: SKBR3 cells; conditions: SKBR3, 72 hours drug exposure, read-out: IC50 (Molar)
Experimental: as §1, §2, §3, §4

N.N.O=C([O-])C1(C(=O)[O-])CCC1.[Pt+2] [carboplatin]
IC50 [1]: 310 µM | IC50 [2]: 56 µM | IC50 [3]: 260 µM | IC50 [4]: 4 µM | IC50 [5]: > 100 µM | IC50 [6]: > 100 µM | IC50 [7]: 52 µM
